Data taken from ChEMBL document CHEMBL3526061, “Glucuronidation of edaravone by human liver and kidney microsomes: biphasic kinetics and identification of UGT1A9 as the major UDP-glucuronosyltransferase isoform” (Drug Metab Dispos, 2012).

Columns and labels:
Assay type in all cases: ADME
[1] = target: T1, UDP-glucuronosyltransferase 1A7 (Homo sapiens, UniProt Q9HAW7); test: Activity of human recombinant UGT1A7 expressed in insect cells assessed as enzyme mediated glucuronidation at 12.5 uM by LC-MS/MS method
T1 sequence (Q9HAW7 whole entry): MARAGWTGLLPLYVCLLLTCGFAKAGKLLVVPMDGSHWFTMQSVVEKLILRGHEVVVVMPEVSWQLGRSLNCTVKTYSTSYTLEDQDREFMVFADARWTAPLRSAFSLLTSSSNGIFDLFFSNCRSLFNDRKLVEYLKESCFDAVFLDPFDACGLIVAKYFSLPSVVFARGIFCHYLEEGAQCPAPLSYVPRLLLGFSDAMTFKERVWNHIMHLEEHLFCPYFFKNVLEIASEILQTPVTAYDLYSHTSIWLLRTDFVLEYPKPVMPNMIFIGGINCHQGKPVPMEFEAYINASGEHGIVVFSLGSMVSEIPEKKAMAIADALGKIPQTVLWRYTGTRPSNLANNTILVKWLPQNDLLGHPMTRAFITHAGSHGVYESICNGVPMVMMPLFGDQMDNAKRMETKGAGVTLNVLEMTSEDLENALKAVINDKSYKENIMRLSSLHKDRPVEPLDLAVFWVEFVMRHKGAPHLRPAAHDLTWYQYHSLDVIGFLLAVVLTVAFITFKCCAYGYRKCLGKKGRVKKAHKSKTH

[2] = target: T2, UDP-glucuronosyltransferase 1A8 (Homo sapiens, UniProt Q9HAW9); test: Activity of human recombinant UGT1A8 expressed in insect cells assessed as enzyme mediated glucuronidation at 12.5 uM by LC-MS/MS method
T2 sequence (Q9HAW9 whole entry): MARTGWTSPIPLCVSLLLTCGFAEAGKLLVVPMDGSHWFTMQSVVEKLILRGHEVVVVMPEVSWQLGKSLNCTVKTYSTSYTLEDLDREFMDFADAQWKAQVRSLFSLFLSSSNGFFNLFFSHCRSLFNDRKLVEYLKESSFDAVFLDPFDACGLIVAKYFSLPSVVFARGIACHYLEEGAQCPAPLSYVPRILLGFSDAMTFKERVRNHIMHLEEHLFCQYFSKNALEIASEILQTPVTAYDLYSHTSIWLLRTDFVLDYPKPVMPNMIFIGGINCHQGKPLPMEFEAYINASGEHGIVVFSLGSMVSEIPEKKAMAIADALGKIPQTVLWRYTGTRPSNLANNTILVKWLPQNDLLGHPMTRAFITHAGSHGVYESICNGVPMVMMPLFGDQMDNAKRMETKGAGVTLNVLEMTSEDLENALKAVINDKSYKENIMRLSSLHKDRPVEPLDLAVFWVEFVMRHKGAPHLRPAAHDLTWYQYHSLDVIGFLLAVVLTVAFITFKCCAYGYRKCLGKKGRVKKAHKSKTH

[3] = target: T3, UDP-glucuronosyltransferase 1A6 (Homo sapiens, UniProt P19224); test: Activity of human recombinant UGT1A6 expressed in insect cells assessed as intrinsic clearance for enzyme mediated glucuronidation per mg protein by LC-MS/MS method
T3 sequence (P19224 whole entry): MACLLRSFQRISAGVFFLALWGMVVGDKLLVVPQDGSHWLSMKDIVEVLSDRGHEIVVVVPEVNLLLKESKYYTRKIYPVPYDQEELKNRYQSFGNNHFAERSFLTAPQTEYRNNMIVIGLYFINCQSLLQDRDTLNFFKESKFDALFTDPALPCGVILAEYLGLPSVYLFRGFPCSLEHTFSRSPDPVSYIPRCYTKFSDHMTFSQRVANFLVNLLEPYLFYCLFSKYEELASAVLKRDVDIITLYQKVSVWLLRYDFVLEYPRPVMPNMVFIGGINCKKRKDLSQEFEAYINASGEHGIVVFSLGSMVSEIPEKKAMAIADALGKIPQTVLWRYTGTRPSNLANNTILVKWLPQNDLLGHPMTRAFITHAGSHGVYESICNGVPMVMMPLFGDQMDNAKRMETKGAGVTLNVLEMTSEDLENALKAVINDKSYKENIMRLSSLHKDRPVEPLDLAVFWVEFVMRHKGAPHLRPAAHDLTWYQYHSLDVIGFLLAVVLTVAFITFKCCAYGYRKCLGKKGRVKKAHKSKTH

[4] = Drug metabolism in human kidney microsomes assessed as drug glucuronidation per mg tissue in absence of BSA by LC-MS/MS method
[5] = Drug metabolism in human kidney microsomes assessed as drug glucuronidation in presence of BSA by LC-MS/MS method
[6] = Drug metabolism in human kidney microsomes assessed as intrinsic clearance for drug glucuronidation per mg tissue in presence of BSA by LC-MS/MS method
[7] = Drug metabolism in human liver microsomes assessed as drug glucuronidation in absence of BSA by LC-MS/MS method
Liver microsome [8] = test: Drug metabolism in human liver microsomes assessed as drug glucuronidation per mg tissue in absence of BSA by LC-MS/MS method
Liver microsome [9] = test: Drug metabolism in human liver microsomes assessed as intrinsic clearance for drug glucuronidation per mg tissue in absence of BSA by LC-MS/MS method
[10] = target: T3, UDP-glucuronosyltransferase 1A6; test: Activity of human recombinant UGT1A6 expressed in insect cells assessed as enzyme mediated glucuronidation at 500 uM by LC-MS/MS method
[11] = target: T4, UDP-glucuronosyltransferase 2B7 (Homo sapiens, UniProt P16662); test: Activity of human recombinant UGT2B7 expressed in insect cells assessed as enzyme mediated glucuronidation at 500 uM by LC-MS/MS method
T4 sequence (P16662 whole entry): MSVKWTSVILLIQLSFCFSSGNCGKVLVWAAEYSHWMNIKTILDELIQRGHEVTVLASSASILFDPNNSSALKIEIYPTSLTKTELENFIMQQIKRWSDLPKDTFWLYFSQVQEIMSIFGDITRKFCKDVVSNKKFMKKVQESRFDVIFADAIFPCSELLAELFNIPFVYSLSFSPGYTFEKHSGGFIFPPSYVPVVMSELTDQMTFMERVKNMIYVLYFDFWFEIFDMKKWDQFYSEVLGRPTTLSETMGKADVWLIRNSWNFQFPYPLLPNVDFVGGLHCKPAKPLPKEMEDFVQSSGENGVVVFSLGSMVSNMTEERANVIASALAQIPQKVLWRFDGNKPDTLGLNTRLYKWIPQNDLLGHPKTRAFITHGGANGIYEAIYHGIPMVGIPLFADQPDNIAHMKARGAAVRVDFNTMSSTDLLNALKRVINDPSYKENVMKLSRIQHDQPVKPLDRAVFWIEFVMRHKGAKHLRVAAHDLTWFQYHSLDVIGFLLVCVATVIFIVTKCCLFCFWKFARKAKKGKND

- Drug metabolism [1]: metabolite_detected
- Drug metabolism [2]: metabolite_detected
- clearance [3]: 1.6 µL/min/mg
- VmaxH [4]: 336.5 pmol/min/g
- VmaxL [4]: 2396 pmol/min/g
- Km ([5]; read-out: KmH): 8.7 µM
- Km ([5]; read-out: KmL): 1470 µM
- CL(high) [6]: 78.5 µL/min/mg
- CL(low) [6]: 3.6 µL/min/mg
- Km ([7]; read-out: KmH): 36.7 µM
- Km ([7]; read-out: KmL): 5880 µM
- VmaxH (Liver microsome [8]): 309.4 pmol/min/g
- VmaxL (Liver microsome [8]): 7429 pmol/min/g
- CLHH (Liver microsome [9]): 8.4 µL/min/g
- CLHL (Liver microsome [9]): 1.3 µL/min/mg
- Drug metabolism [10]: metabolite_detected
- Drug metabolism [11]: metabolite_detected
SMILES: CC1=NN(c2ccccc2)C(=O)C1 [EDARAVONE]
